# Test results published in ChEMBL document CHEMBL1135413, “Arylamidrazones as novel corticotropin releasing factor receptor antagonists” (J Med Chem, 2002).
# Target: T1, Corticotropin-releasing factor receptor 1 (Homo sapiens, UniProt P34998)
# T1 sequence (P34998 whole entry): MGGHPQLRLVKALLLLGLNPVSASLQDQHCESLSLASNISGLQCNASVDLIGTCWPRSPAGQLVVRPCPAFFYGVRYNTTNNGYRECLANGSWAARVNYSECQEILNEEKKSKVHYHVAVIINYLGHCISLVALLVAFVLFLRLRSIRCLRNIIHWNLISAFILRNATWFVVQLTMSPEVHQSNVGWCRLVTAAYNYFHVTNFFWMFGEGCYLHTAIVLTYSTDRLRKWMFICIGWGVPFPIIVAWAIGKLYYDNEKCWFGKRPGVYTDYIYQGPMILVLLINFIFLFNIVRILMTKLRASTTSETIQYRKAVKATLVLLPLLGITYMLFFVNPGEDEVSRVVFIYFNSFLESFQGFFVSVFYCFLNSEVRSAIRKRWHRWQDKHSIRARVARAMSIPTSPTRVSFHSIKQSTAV
# Assay: Binding affinity against human Corticotropin releasing factor receptor 1
row,Compound,Ki [nM]
1,CC(=O)/C(=N\c1ccc(Cl)cc1)NNc1ccccc1,> 10000
2,CC(=O)/C(=N\Nc1ccccc1[N+](=O)[O-])Oc1cccc(Cl)c1,> 10000
3,CC(=O)/C(=N\Nc1ccccc1Cl)Sc1cccc(Cl)c1,> 10000
4,CSc1cccc(N/C(=N/Nc2ccccc2C(F)(F)F)C(C)=O)c1,> 10000
5,CC(=O)/C(=N\Nc1ccccc1C(F)(F)F)Oc1cccc(Cl)c1,> 10000
6,CC(=O)/C(=N\Nc1ccccc1C(F)(F)F)N(C)c1cccc(Cl)c1,> 10000
7,CC(=O)/C(=N\Nc1ccccc1C#N)N(C)c1cccc(Cl)c1,> 10000
8,CC(=O)/C(=N\c1ccc(Cl)cc1)NNc1ccccc1C(F)(F)F,> 10000
9,CC(=O)/C(=N\Nc1ccccc1)Oc1cccc(Cl)c1,> 10000
10,CC(=O)/C(=N\c1ccccc1)NNc1ccccc1C(F)(F)F,2260
11,CC(=O)/C(=N\c1ccccc1Cl)NNc1ccccc1,> 10000
12,CC(=O)/C(=N\c1ccccc1Cl)NNc1ccccc1C,> 10000
13,CC(=O)C(=NNc1ccccc1S(C)(=O)=O)Nc1cccc(Cl)c1,> 10000
14,CCOc1cccc(N/C(=N/Nc2ccccc2C)C(C)=O)c1,> 10000
15,CSc1cccc(N/C(=N/Nc2ccccc2C)C(C)=O)c1,> 10000
16,CC(=O)/C(=N\c1cccc(C#N)c1)NNc1ccccc1C,> 10000
17,CC(=O)/C(=N\Nc1ccccc1C)N(C)c1cccc(Cl)c1,> 10000

row,Compound,Ki [nM]
1,CCOc1cccc(NC(=NNc2ccccc2C(F)(F)F)C(C)=O)c1,> 10000
2,CC(=O)/C(=N\Nc1ccccc1Cl)N(C)c1cccc(Cl)c1,> 10000
3,CC(=O)/C(=N\Nc1ccccc1)Nc1cccc(Cl)c1,2720
4,CC(=O)C(=NNc1ccccc1)Nc1ccccc1,6230
5,CC(=O)C(=NNc1ccccc1S(N)(=O)=O)Nc1cccc(Cl)c1,> 10000
6,CC(=O)C(=NNc1ccccc1C(F)(F)F)Nc1cccc(C(F)(F)F)c1,> 10000
7,CSc1cccc(N/C(=N/Nc2ccccc2Cl)C(C)=O)c1,> 10000
8,CC(=O)/C(=N\Nc1ccccc1)N(C)c1cccc(Cl)c1,> 10000
9,CC(=O)/C(=N\Nc1ccccc1C)Sc1cccc(Cl)c1,> 10000
10,CC(=O)/C(=N\c1ccccc1Cl)NNc1ccccc1C#N,> 10000
11,COc1cccc(N/C(=N/Nc2ccccc2C(F)(F)F)C(C)=O)c1,6950
12,CC(=O)/C(=N\Nc1ccccc1C)Oc1cccc(Cl)c1,> 10000
13,COc1cccc(NC(=NNc2ccccc2)C(C)=O)c1,> 10000
14,CCOc1cccc(NC(=NNc2ccccc2Cl)C(C)=O)c1,> 10000
15,CC(=O)C(=NNc1ccccc1C(F)(F)F)Nc1cccc(C#N)c1,> 10000
16,CC(=O)/C(=N\c1ccccc1Cl)NNc1ccccc1Cl,> 10000
17,CC(=O)C(=NNc1ccccc1C(F)(F)F)Nc1ccccc1Cl,> 10000

# More lines, in order of falling Ki, values ahead:
row,Ki [nM],Compound
1,2210,CC(=O)/C(=N\Nc1ccccc1C#N)Nc1ccc(Cl)cc1
2,1830,CC(=O)/C(=N\c1ccc(Cl)cc1)NNc1ccccc1C
3,1460,CC(=O)/C(=N\c1cccc(Cl)c1)NNc1ccc(Br)cc1
4,1400,COc1cccc(NC(=NNc2ccccc2C)C(C)=O)c1
5,1080,CC(=O)C(=NNc1ccccc1C#N)Nc1ccccc1
6,652,COc1cccc(N/C(=N/Nc2ccccc2Cl)C(C)=O)c1
7,650,CC(=O)/C(=N\Nc1ccccc1C#N)Oc1cccc(C)c1
8,538,CC(=O)C(=NNc1ccccc1C(F)(F)F)Nc1cccc(Cl)c1
9,526,CC(=O)/C(=N\c1cccc(C)c1)NNc1ccccc1C
10,526,CC(=O)/C(=N\c1ccccc1)NNc1ccccc1C
11,417,CC(=O)C(=NNc1ccccc1Cl)Nc1cccc(Cl)c1
12,415,CC(=O)/C(=N\Nc1ccccc1C#N)Nc1cccc(Cl)c1
13,299,CC(=O)/C(=N\c1ccccc1)NNc1ccccc1Cl
14,291,CC(=O)/C(=N\c1cccc(C(F)(F)F)c1)NNc1ccccc1C
15,197,CC(=O)/C(=N\c1cccc(F)c1)NNc1ccccc1C(F)(F)F
16,115,CC(=O)/C(=N\c1cccc(C)c1)NNc1ccccc1Cl
17,66,C#Cc1cccc(NC(=NNc2ccccc2C(F)(F)F)C(C)=O)c1
18,62,C#Cc1cccc(/N=C(/NNc2ccccc2C)C(C)=O)c1
19,51,CC(=O)C(=NNc1ccccc1[N+](=O)[O-])Nc1cccc(Cl)c1
20,43,CC(=O)/C(=N\c1cccc(F)c1)NNc1ccccc1Cl
21,43,CC(=O)/C(=N\c1cccc(F)c1)NNc1ccccc1C
22,35,C#Cc1cccc(/N=C(/NNc2ccccc2Cl)C(C)=O)c1
